# Laboratory results taken from ChEMBL document CHEMBL1131999, “Design, synthesis and testing of amino-bicycloaryl based orally bioavailable thrombin inhibitors” (Bioorg Med Chem Lett, 1999).
# Tests used:
# Caco-2 = conditions: Homo sapiens
# Description: The compound was evaluated in vitro for the Caco-2 cell permeability.
# Serine protease 1 = Serine protease 1 (Homo sapiens, UniProt P07477); assay: In vitro trypsin inhibition
# Prothrombin = Prothrombin (Homo sapiens, UniProt P00734); assay: In vitro thrombin inhibition
# [1] = Oral bioavailability in dog; format: ADME, organism-based, Canis lupus familiaris; conditions: in vivo
# Sequence of Serine protease 1 (P07477 whole entry): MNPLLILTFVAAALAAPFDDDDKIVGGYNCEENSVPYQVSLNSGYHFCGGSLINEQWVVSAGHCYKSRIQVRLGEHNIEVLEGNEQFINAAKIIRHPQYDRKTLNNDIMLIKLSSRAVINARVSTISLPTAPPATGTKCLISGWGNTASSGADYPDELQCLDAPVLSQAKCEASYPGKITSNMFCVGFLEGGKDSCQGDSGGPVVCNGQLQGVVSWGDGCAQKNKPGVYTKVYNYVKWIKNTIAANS
Compound,IC50 (Serine protease 1),IC50 (Prothrombin),bioavailability [1],Papp (Caco-2)
CC1CCN(C(=O)C(Cc2cc3c(N)nccc3s2)NS(=O)(=O)c2ccc3ccccc3c2)CC1 (stereo not given),205 µM,209 µM,,11.7 ×10⁻⁶ cm/s
COc1ccc2ccc(S(=O)(=O)NC(Cc3ccc4ccnc(N)c4c3)C(=O)N3CCC(C)CC3)cc2c1 (stereo not given),8 µM,0.63 µM,,
COc1ccc2ccc(S(=O)(=O)NC(Cc3cc4c(N)nccc4o3)C(=O)N3CCC(C)CC3)cc2c1 (stereo not given),6 µM,1.58 µM,,0.9 ×10⁻⁶ cm/s
COc1cc2ccc(S(=O)(=O)NC(Cc3cc4c(N)nccc4s3)C(=O)N3CCC(C)CC3)cc2cc1OC (stereo not given),4 µM,5 µM,,
COc1ccc2ccc(S(=O)(=O)NC(Cc3cc4c(N)nccc4s3)C(=O)N3CCC(C)CC3)cc2c1 (stereo not given),4 µM,,36%,12.1 ×10⁻⁶ cm/s

# Second part, led by results:
IC50 (Serine protease 1),IC50 (Prothrombin),bioavailability [1],Compound,Papp (Caco-2)
2 µM,1.4 µM,,COc1ccc2ccc(S(=O)(=O)NC(Cc3cc4c(N)nccc4s3)C(=O)N3CCC(C(C)=O)CC3)cc2c1 (stereo not given),2.3 ×10⁻⁶ cm/s
13 µM,6 µM,,COc1ccc2ccc(S(=O)(=O)NC(Cc3cc4c(N)nccc4s3)C(=O)N3CCN(C)CC3)cc2c1 (stereo not given),
18 µM,0.56 µM,,COc1ccc2ccc(S(=O)(=O)NC(Cc3cc4c(N)nccc4s3)C(=O)N3CCN(S(C)(=O)=O)CC3)cc2c1 (stereo not given),
1.9 µM,0.64 µM,,CC1CCN(C(=O)C(Cc2cccc(C(=N)N)c2)NS(=O)(=O)c2ccc3ccccc3c2)CC1 (stereo not given),
27 µM,48 µM,,COc1ccc2ccc(S(=O)(=O)NC(Cc3ccc4c(N)nccc4c3)C(=O)N3CCC(C)CC3)cc2c1 (stereo not given),7.5 ×10⁻⁶ cm/s
